# Data taken from patent publication US8415342B2, “Besifloxacin ophthalmic composition for the treatment or control of infection” (Bausch & Lomb Incorporated, priority 2008, dated 2013).
# Read-outs that look alike come from different tables or passages of the source.
# How the values were obtained:
# Type in all cases: cell-based
# Streptococcus pyogenes = assay: MIC, CLSI broth microdilution, clinical isolates; details: Streptococcus pyogenes (N = 101)
# Moraxella catarrhalis = assay: MIC, CLSI broth microdilution, clinical isolates; details: Moraxella catarrhalis (N = 101)
# Staphylococcus aureus = assay: MIC, CLSI broth microdilution, clinical isolates; details: for MIC50 / MIC90: Staphylococcus aureus
# Streptococcus agalactiae = assay: MIC, CLSI broth microdilution, clinical isolates; details: Streptococcus agalactiae (N = 100)
# S. pneumoniae = assay: MIC and MBC:MIC ratio, recent ocular isolates; details: S. pneumoniae (N = 35)
# Staphylococcus hominis = assay: MIC, CLSI broth microdilution, clinical isolates; details: Staphylococcus hominis (N = 50)
# [1] = test system: Staphylococcus lugdunensis; assay: MIC, CLSI broth microdilution, clinical isolates; details: Staphylococcus lugdunensis (N = 15)
# Klebsiella oxytoca = assay: MIC, CLSI broth microdilution, clinical isolates; details: Klebsiella oxytoca (N = 50)
# Viridans streptococci = assay: MIC, CLSI broth microdilution, clinical isolates; details: Viridans streptococci (N = 156)
# Staphylococcus warneri = assay: MIC, CLSI broth microdilution, clinical isolates; details: Staphylococcus warneri (N = 50)
# Anaerobic Bacteria = assay: MIC against anaerobic bacteria (Table 7)
# [2] = Staphylococcus aureus (CNS, N = 16)
# [3] = Staphylococcus aureus (CS, N = 14)
# [4] = Staphylococcus aureus (all phenotypes, N = 30)
# [5] = MRSA, Staphylococcus aureus (MRSA, N = 11)
# [6] = MSSA, Staphylococcus aureus (MSSA, N = 19)
# [7] = Streptococcus pneumoniae, recent ocular isolates
# [8] = Clostridium perfringens, Clostridium perfringens (N = 21)
compound,measurement,setting,value
"N[C@@H]1CCCCN(c2c(F)cc3c(=O)c(C(=O)O)cn(C4CC4)c3c2Cl)C1 [Besifloxacin, (R)-(+)-(3-amino-2,3,4,5,6,7-hexahydro-1H-azepin-1-yl)-8-chloro-1-cyclopropyl-6-fluoro-1,4,-dihydro-4-oxo-3-quinolinecarboxylic acid]",MIC Range,Streptococcus pyogenes,0.03 to 0.06 µg/mL
same,MIC50,Streptococcus pyogenes; read-out: MIC50,0.03 µg/mL
same,MIC90,Streptococcus pyogenes; read-out: MIC90,0.06 µg/mL
same,MIC50,Moraxella catarrhalis,0.03 µg/mL
same,MIC90,Moraxella catarrhalis,0.03 µg/mL
same,MIC Range,Moraxella catarrhalis,0.015 to 0.12 µg/mL
same,MIC Range,Staphylococcus aureus; [2],0.03 to 4 µg/mL
same,MIC Range,Staphylococcus aureus; [3],0.015 to 0.25 µg/mL
same,MIC Range,"Staphylococcus aureus; Staphylococcus aureus (MRSA, N = 11)",0.015 to 4 µg/mL
same,MIC Range,"Staphylococcus aureus; Staphylococcus aureus (MSSA, N = 19)",0.015 to 4 µg/mL
same,MIC Range,Staphylococcus aureus; [4],0.015 to 4 µg/mL
same,MIC50,Staphylococcus aureus; [5],0.5 µg/mL
same,MIC90,Staphylococcus aureus; [5],4 µg/mL
same,MIC50,Staphylococcus aureus; [6],0.015 µg/mL
same,MIC90,Staphylococcus aureus; [6],0.25 µg/mL
same,MIC50,Staphylococcus aureus; [2],0.25 µg/mL
same,MIC90,Staphylococcus aureus; [2],4 µg/mL
same,MIC50,Staphylococcus aureus; [3],0.015 µg/mL
same,MIC90,Staphylococcus aureus; [3],0.12 µg/mL
same,MIC50,Staphylococcus aureus; [4],0.12 µg/mL
same,MIC90,Staphylococcus aureus; [4],4 µg/mL
same,MIC Range,Streptococcus agalactiae,0.03 to 0.12 µg/mL
same,MIC50,Streptococcus agalactiae; read-out: MIC50,0.06 µg/mL
same,MIC90,Streptococcus agalactiae; read-out: MIC90,0.06 µg/mL
same,% of isolates with MBC:MIC ratio 1,S. pneumoniae,60.0%
same,% of isolates with MBC:MIC ratio 2,S. pneumoniae,37.1%
same,% of isolates with MBC:MIC ratio 4,S. pneumoniae,2.9%
same,% of isolates with MBC:MIC ratio 8,S. pneumoniae,0.0%
same,% of isolates with MBC:MIC ratio ≧16,S. pneumoniae,0.0%
same,MIC Range,S. pneumoniae; recent ocular isolates,0.015 to 0.5 µg/mL
same,MIC50,S. pneumoniae; [7],0.06 µg/mL
same,MIC90,S. pneumoniae; [7],0.06 µg/mL
same,MIC50,Staphylococcus hominis,0.25 µg/mL
same,MIC90,Staphylococcus hominis,1 µg/mL
same,MIC Range,Staphylococcus hominis,0.015 to 2 µg/mL
same,MIC50,[1],0.06 µg/mL
same,MIC90,[1],0.5 µg/mL
same,MIC Range,[1],0.015 to 2 µg/mL
same,MIC50,Klebsiella oxytoca,0.12 µg/mL
same,MIC90,Klebsiella oxytoca,1 µg/mL
same,MIC Range,Klebsiella oxytoca,0.06 to 8 µg/mL
same,MIC Range,Viridans streptococci,0.015 to 2 µg/mL
same,MIC50,Viridans streptococci; read-out: MIC50,0.06 µg/mL
same,MIC90,Viridans streptococci; read-out: MIC90,0.12 µg/mL
same,MIC50,Staphylococcus warneri,0.06 µg/mL
same,MIC90,Staphylococcus warneri,1 µg/mL
same,MIC Range,Staphylococcus warneri,0.015 to 2 µg/mL
same,MIC50,"Anaerobic Bacteria; Bacteroides fragilis, Bacteroides fragilis (N = 20), read-out: MIC50",0.5 µg/mL
same,MIC90,"Anaerobic Bacteria; Bacteroides fragilis, Bacteroides fragilis (N = 20), read-out: MIC90",1 µg/mL
same,MIC Range,Anaerobic Bacteria; Clostridium perfringens (N = 21),0.12 to 0.25 µg/mL
same,MIC50,Anaerobic Bacteria; [8],0.25 µg/mL
same,MIC90,Anaerobic Bacteria; [8],0.25 µg/mL
same,MIC50,"Anaerobic Bacteria; Cutibacterium acnes, Propionibacterium acnes (N = 21), read-out: MIC50",0.25 µg/mL
same,MIC90,"Anaerobic Bacteria; Cutibacterium acnes, Propionibacterium acnes (N = 21), read-out: MIC90",0.25 µg/mL
same,MIC Range,Anaerobic Bacteria; Fusobacterium spp. (N = 21),0.12 to 8 µg/mL
same,MIC50,"Anaerobic Bacteria; Fusobacterium spp. (N = 21), read-out: MIC50",0.25 µg/mL
same,MIC Range,Anaerobic Bacteria; Prevotella spp. (N = 20),0.06 to 16 µg/mL
same,MIC50,"Anaerobic Bacteria; Prevotella spp. (N = 20), read-out: MIC50",1 µg/mL
